Experimental data published in patent publication US12371454B2, “Cyclic peptide compound having Kras inhibitory action” (priority 2019, dated 2025).
Starred links: 1 amine or outer side, 2 acyl side, 3 side chain; linkers in the order of their positions; H or OH if unused. Positions of bridges follow the written chain, without caps; N, C: chain ends. Non-standard residues stand in square brackets, D forms with d. Residues, ends and D or L forms follow the SMILES beside them. *: point of attachment. NMeAbu(3,3-F2-piperidino) = CN[C@@H](CCN1CCCC(F)(F)C1)C(=O)O; hPhe(3-Cl-4-CF3) = N[C@@H](CCc1ccc(C(F)(F)F)c(Cl)c1)C(=O)O; X38 = CN([C@@H](Cc1cccc(OC(F)(F)F)c1)C(=O)[*:2])[*:1]; NMePhe(4-CF3) = CN[C@@H](Cc1ccc(C(F)(F)F)cc1)C(=O)O; NMeAbu(4,4,4-F3) = CN[C@@H](CC(F)(F)F)C(=O)O; NMePhe(4-Me) = CN[C@@H](Cc1ccc(C)cc1)C(=O)O; NMedβ3hAla = C[C@H](CC(=O)[*:2])N(C)[*:1]; NMeGly(cPent) = CN[C@H](C(=O)O)C1CCCC1; Phe(3-I) = N[C@@H](Cc1cccc(I)c1)C(=O)O; NMeAla(cPr) = CN[C@@H](CC1CC1)C(=O)O; Phe(2-Me) = Cc1ccccc1C[C@H](N)C(=O)O; NMeCha = CN[C@@H](CC1CCCCC1)C(=O)O; NMeCba = CN[C@@H](CC1CCC1)C(=O)O; NMeChg = CN[C@H](C(=O)O)C1CCCCC1; NMeI = CC[C@H](C)[C@H](NC)C(=O)O; NMeT = CN[C@H](C(=O)O)[C@@H](C)O; NMeD = CN[C@@H](CC(=O)O)C(=O)O; NMeL = CN[C@@H](CC(C)C)C(=O)O; NMeV = CN[C@H](C(=O)O)C(C)C; Trifluoroethyl = FC(F)(F)C*; d(β3hA) = C[C@@H](N)CC(=O)O; NMeAbu = CC[C@H](NC)C(=O)O; dIva = CC[C@@](C)(N)C(=O)O; NMeS = CN[C@@H](CO)C(=O)O; Morpholide = C1CN(*)CCO1; NMeA = CN[C@@H](C)C(=O)O; NMeAib = CNC(C)(C)C(=O)O; Piperidide = C1CCN(*)CC1; Pyrrolidide = C1CCN(*)C1; Ac5c = NC1(C(=O)O)CCCC1; Aze = O=C(O)[C@@H]1CCN1; Ac4c = NC1(C(=O)O)CCC1; Aib = CC(C)(N)C(=O)O; Sar = CNCC(=O)O; Propyl = CCC*

How the values were obtained:
[1] = target: T1, Kras and SOS1 (biotin-tagged human Kras loaded with GDP, His-tagged human SOS1) (Homo sapiens, UniProt P01116, G12D); assay: Protein-protein interaction inhibition between Kras and SOS1 (KrasGl2D-SOS PPI) using AlphaScreen; format: binding; conditions: AlphaScreen; biotin-tagged human Kras loaded with GDP, His-tagged human SOS1; read-out: KRAS G12D-SOS PPI IC50
T1 construct: made in house; host or cells: E. coli (stated for Kras only)
Method in brief: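 Energy transfer from nickel-chelate donor beads bound to His-SOS1 to streptavidin acceptor beads bound to biotin-Kras, expressed in E. coli and loaded with GDP after purification, was monitored. Donors were excited at 680 nm; singlet oxygen reaching acceptors gave emission read at 520-620 nm.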

[2] = test system: Human pancreatic cancer cell line AsPC-1; assay: Measurement of AsPC-1 cell growth inhibition (AsPC-1 CGI); format: cell-based; conditions: 96 h
Method in brief: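 AsPC-1 cells in 15% FBS RPMI-1640 were exposed to test compound for 96 hours at 37° C, with CellTiter-Glo as endpoint.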

T1 sequence (P01116 1-188 isoform P01116-2 G12D): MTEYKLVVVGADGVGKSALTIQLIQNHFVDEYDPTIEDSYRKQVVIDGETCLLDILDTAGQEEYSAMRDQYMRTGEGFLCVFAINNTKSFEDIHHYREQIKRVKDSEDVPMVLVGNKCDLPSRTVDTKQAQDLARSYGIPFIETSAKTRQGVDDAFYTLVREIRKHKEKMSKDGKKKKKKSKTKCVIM

Structure (SMILES) | IC50 [1] [nM] | IC50 [2] [nM]
CCCOC[C@H]1C(=O)N(C)CC(=O)N[C@@H](CCc2ccc(C(F)(F)F)c(Cl)c2)C(=O)N2CCC[C@H]2C(=O)NC2(CCCC2)C(=O)N(C)[C@@H](C2CCCCC2)C(=O)N(C)[C@H](C(=O)N2CCCC2)CC(=O)N(C)[C@@H](CC)C(=O)N[C@@H]([C@@H](C)CC)C(=O)N(C)CC(=O)N(C)CC(=O)N1C [Compound 1929] ([NMeAbu]I[Sar][Sar][NMeS](Propyl)[Sar][hPhe(3-Cl-4-CF3)]P[Ac5c][NMeChg][NMeD]-Pyrrolidide; lactam N-11) | 0.61 | 100 to 500
CC[C@H](C)[C@@H]1NC(=O)[C@H](CC(C)C)N(C)C(=O)C[C@@H](C)N(C)C(=O)[C@H](C(C)C)N(C)C(=O)C2(CCCC2)NC(=O)[C@@H]2CCCN2C(=O)[C@H](CCc2ccc(C(F)(F)F)c(Cl)c2)NC(=O)CN(C)C(=O)[C@H](Cc2cccc(OC(F)(F)F)c2)N(C)C(=O)CN(C)C(=O)CN(C)C1=O [Compound 1637] (cyclo([Ac5c][NMeV][NMedβ3hAla][NMeL]I[Sar][Sar][X38][Sar][hPhe(3-Cl-4-CF3)]P)) | 17 | 50 to 100
CC[C@H](C)[C@@H]1NC(=O)[C@H](CC2CC2)N(C)C(=O)C[C@@H](C(=O)N2CCCCC2)N(C)C(=O)[C@H](C2CCCCC2)N(C)C(=O)C2(CCCC2)NC(=O)[C@@H]2CCCN2C(=O)[C@H](CCc2ccc(C(F)(F)F)c(Cl)c2)NC(=O)CN(C)C(=O)[C@H](CC2CCCCC2)N(C)C(=O)CN(C)C(=O)CN(C)C1=O [Compound 68] ([NMeAla(cPr)]I[Sar][Sar][NMeCha][Sar][hPhe(3-Cl-4-CF3)]P[Ac5c][NMeChg][NMeD]-Piperidide; lactam N-11) | 0.58 | 50 to 100
CC[C@H](C)[C@@H]1NC(=O)[C@H](COCC(F)(F)F)N(C)C(=O)C[C@@H](C(=O)N2CCCCC2)N(C)C(=O)[C@H](C2CCCCC2)N(C)C(=O)C2(CCCC2)NC(=O)[C@@H]2CCCN2C(=O)[C@H](CCc2ccc(C(F)(F)F)c(Cl)c2)NC(=O)CN(C)C(=O)[C@H](CC2CCCCC2)N(C)C(=O)CN(C)C(=O)CN(C)C1=O [Compound 518] ([NMeS](Trifluoroethyl)I[Sar][Sar][NMeCha][Sar][hPhe(3-Cl-4-CF3)]P[Ac5c][NMeChg][NMeD]-Piperidide; lactam N-11) | 0.67 | 50 to 100
CC[C@H](C)[C@@H]1NC(=O)[C@H](CC(C)C)N(C)C(=O)C[C@@H](C(=O)N2CCCCC2)N(C)C(=O)[C@H](CC(C)C)NC(=O)C(C)(C)N(C)C(=O)[C@H](Cc2ccccc2C)NC(=O)[C@H](Cc2cccc(I)c2)NC(=O)CN(C)C(=O)[C@H](Cc2ccc(C)cc2)N(C)C(=O)CN(C)C(=O)CN(C)C1=O [Compound 596] ([NMeL]I[Sar][Sar][NMePhe(4-Me)][Sar][Phe(3-I)][Phe(2-Me)][NMeAib]L[NMeD]-Piperidide; lactam N-11) | 34 | > 500
CC[C@H](C)[C@@H]1NC(=O)[C@H](CC(C)C)N(C)C(=O)C[C@@H](C(=O)N(C)C)N(C)C(=O)[C@H](C2CCCCC2)N(C)C(=O)C2(CCCC2)NC(=O)[C@@H]2CCCN2C(=O)[C@H](CCc2ccc(C(F)(F)F)c(Cl)c2)NC(=O)CN(C)C(=O)[C@H](Cc2ccc(C)cc2)N(C)C(=O)CN(C)C(=O)CN(C)C1=O [Compound 1762] ([NMeL]I[Sar][Sar][NMePhe(4-Me)][Sar][hPhe(3-Cl-4-CF3)]P[Ac5c][NMeChg][NMeD]-NMe2; lactam N-11) | 0.37 | 20 to 50
CC[C@H](C)[C@@H]1NC(=O)[C@H](CC(C)C)N(C)C(=O)C[C@@H](C(=O)N(C)C)N(C)C(=O)[C@H](C2CCCC2)N(C)C(=O)C2(CCCC2)NC(=O)[C@H](C)N(C)C(=O)[C@H](CCc2ccc(C(F)(F)F)c(Cl)c2)NC(=O)CN(C)C(=O)[C@H](CC2CCCCC2)N(C)C(=O)[C@@H]2CCN2C(=O)[C@H](C)N(C)C1=O [Compound 274] ([NMeL]I[NMeA][Aze][NMeCha][Sar][hPhe(3-Cl-4-CF3)][NMeA][Ac5c][NMeGly(cPent)][NMeD]-NMe2; lactam N-11) | 0.82 | 50 to 100
CC[C@H](C)[C@@H]1NC(=O)[C@H](CC(C)C)N(C)C(=O)C[C@@H](C(=O)N(C)C)N(C)C(=O)[C@H]([C@@H](C)CC)N(C)C(=O)C2(CCCC2)NC(=O)[C@H](CCN2CCCC(F)(F)C2)N(C)C(=O)[C@H](CCc2ccc(C(F)(F)F)c(Cl)c2)NC(=O)CN(C)C(=O)[C@H](Cc2ccc(C)cc2)N(C)C(=O)[C@@H]2CCN2C(=O)[C@H](C)N(C)C1=O [Compound 818] ([NMeL]I[NMeA][Aze][NMePhe(4-Me)][Sar][hPhe(3-Cl-4-CF3)][NMeAbu(3,3-F2-piperidino)][Ac5c][NMeI][NMeD]-NMe2; lactam N-11) | 1.2 | 20 to 50
CC[C@H](C)[C@@H]1NC(=O)[C@H]([C@@H](C)OC)N(C)C(=O)C[C@@H](C(=O)N2CCCCC2)N(C)C(=O)[C@H](C2CCCCC2)N(C)C(=O)C2(CCCC2)NC(=O)[C@@H]2CCCN2C(=O)[C@H](CCc2ccc(C(F)(F)F)c(Cl)c2)NC(=O)CN(C)C(=O)[C@H](CC2CCCCC2)N(C)C(=O)CN(C)C(=O)CN(C)C1=O [Compound 820] ([NMeT](Me)I[Sar][Sar][NMeCha][Sar][hPhe(3-Cl-4-CF3)]P[Ac5c][NMeChg][NMeD]-Piperidide; lactam N-11) | 0.73 | 50 to 100
CC[C@H](C)[C@@H]1NC(=O)[C@H](CC(C)C)N(C)C(=O)C[C@@H](C(=O)N2CCOCC2)N(C)C(=O)[C@H](C(C)C)N(C)C(=O)C2(CCCC2)NC(=O)[C@@H]2CCCN2C(=O)[C@H](CCc2ccc(C(F)(F)F)c(Cl)c2)NC(=O)CN(C)C(=O)[C@H](CC2CCCCC2)N(C)C(=O)[C@@H]2CCN2C(=O)[C@H](C)N(C)C1=O [Compound 1178] ([NMeL]I[NMeA][Aze][NMeCha][Sar][hPhe(3-Cl-4-CF3)]P[Ac5c][NMeV][NMeD]-Morpholide; lactam N-11) | 1 | 50 to 100
CC[C@H](C)[C@@H]1NC(=O)[C@H](CC(C)C)N(C)C(=O)C[C@@H](C)N(C)C(=O)[C@H](C(C)C)N(C)C(=O)[C@@](C)(CC)NC(=O)[C@@H]2CCCN2C(=O)[C@H](CCc2ccc(C(F)(F)F)c(Cl)c2)NC(=O)CN(C)C(=O)[C@H](CC2CCCCC2)N(C)C(=O)CN(C)C(=O)CN(C)C1=O [Compound 223] (cyclo(I[Sar][Sar][NMeCha][Sar][hPhe(3-Cl-4-CF3)]P[dIva][NMeV][NMedβ3hAla][NMeL])) | 18 | 100 to 500
CC[C@H](C)[C@@H]1NC(=O)[C@H](CC(C)C)N(C)C(=O)C[C@@H](C)NC(=O)[C@H](C2CCCC2)N(C)C(=O)C2(CCC2)NC(=O)[C@@H]2CCCN2C(=O)[C@H](CCc2ccc(C(F)(F)F)c(Cl)c2)NC(=O)CN(C)C(=O)[C@H](Cc2ccc(C(F)(F)F)cc2)N(C)C(=O)CN(C)C(=O)CN(C)C1=O [Compound 1508] (cyclo([Ac4c][NMeGly(cPent)][d(β3hA)][NMeL]I[Sar][Sar][NMePhe(4-CF3)][Sar][hPhe(3-Cl-4-CF3)]P)) | 1.3 | 100 to 500
CC[C@H](C)[C@@H]1NC(=O)[C@H](CC(C)C)N(C)C(=O)C[C@@H](C(=O)N2CCCCC2)N(C)C(=O)[C@H](C2CCCCC2)N(C)C(=O)C2(CCCC2)NC(=O)[C@@H]2CCCN2C(=O)[C@H](CCc2ccc(C(F)(F)F)c(Cl)c2)NC(=O)CN(C)C(=O)[C@H](CC2CCC2)N(C)C(=O)CN(C)C(=O)CN(C)C1=O [Compound 1817] ([NMeL]I[Sar][Sar][NMeCba][Sar][hPhe(3-Cl-4-CF3)]P[Ac5c][NMeChg][NMeD]-Piperidide; lactam N-11) | 1.4 | 100 to 500
CC[C@H](C)[C@@H]1NC(=O)[C@H](CC(C)C)N(C)C(=O)C[C@@H](C(=O)N2CCCCC2)N(C)C(=O)[C@H](C2CCCCC2)N(C)C(=O)C(C)(C)NC(=O)[C@@H]2CCCN2C(=O)[C@H](CCc2ccc(C(F)(F)F)c(Cl)c2)NC(=O)CN(C)C(=O)[C@H](CC2CCCCC2)N(C)C(=O)CN(C)C(=O)CN(C)C1=O [Compound 1680] ([NMeL]I[Sar][Sar][NMeCha][Sar][hPhe(3-Cl-4-CF3)]P[Aib][NMeChg][NMeD]-Piperidide; lactam N-11) | 0.61 | 50 to 100
CC[C@H](C)[C@@H]1NC(=O)[C@H](CC(F)(F)F)N(C)C(=O)C[C@@H](C(=O)N2CCCCC2)N(C)C(=O)[C@H](C(C)C)N(C)C(=O)C2(CCCC2)NC(=O)[C@@H]2CCCN2C(=O)[C@H](CCc2ccc(C(F)(F)F)c(Cl)c2)NC(=O)CN(C)C(=O)[C@H](CC2CCCCC2)N(C)C(=O)[C@@H]2CCN2C(=O)[C@H](C)N(C)C1=O [Compound 1704] ([NMeAbu(4,4,4-F3)]I[NMeA][Aze][NMeCha][Sar][hPhe(3-Cl-4-CF3)]P[Ac5c][NMeV][NMeD]-Piperidide; lactam N-11) | 6 | 100 to 500
CC[C@H](C)[C@@H]1NC(=O)[C@H](CC)N(C)C(=O)C[C@@H](C(=O)N2CCOCC2)N(C)C(=O)[C@H](C2CCCCC2)N(C)C(=O)C2(CCCC2)NC(=O)[C@@H]2CCCN2C(=O)[C@H](CCc2ccc(C(F)(F)F)c(Cl)c2)NC(=O)CN(C)C(=O)[C@H](Cc2ccc(C)cc2)N(C)C(=O)CN(C)C(=O)CN(C)C1=O [Compound 1904] ([NMeAbu]I[Sar][Sar][NMePhe(4-Me)][Sar][hPhe(3-Cl-4-CF3)]P[Ac5c][NMeChg][NMeD]-Morpholide; lactam N-11) | 0.57 | 20 to 50
